Measured values reported in PMC3720808 (European journal of medicinal chemistry, 2013).
Like-named read-outs stand apart in the source and are kept apart here.

Key:
[1] = biological target: T1, Mer (Homo sapiens, UniProt Q12866); test: Microfluidic capillary electrophoresis; format: biochemical
T1 sequence (Q12866 21-999): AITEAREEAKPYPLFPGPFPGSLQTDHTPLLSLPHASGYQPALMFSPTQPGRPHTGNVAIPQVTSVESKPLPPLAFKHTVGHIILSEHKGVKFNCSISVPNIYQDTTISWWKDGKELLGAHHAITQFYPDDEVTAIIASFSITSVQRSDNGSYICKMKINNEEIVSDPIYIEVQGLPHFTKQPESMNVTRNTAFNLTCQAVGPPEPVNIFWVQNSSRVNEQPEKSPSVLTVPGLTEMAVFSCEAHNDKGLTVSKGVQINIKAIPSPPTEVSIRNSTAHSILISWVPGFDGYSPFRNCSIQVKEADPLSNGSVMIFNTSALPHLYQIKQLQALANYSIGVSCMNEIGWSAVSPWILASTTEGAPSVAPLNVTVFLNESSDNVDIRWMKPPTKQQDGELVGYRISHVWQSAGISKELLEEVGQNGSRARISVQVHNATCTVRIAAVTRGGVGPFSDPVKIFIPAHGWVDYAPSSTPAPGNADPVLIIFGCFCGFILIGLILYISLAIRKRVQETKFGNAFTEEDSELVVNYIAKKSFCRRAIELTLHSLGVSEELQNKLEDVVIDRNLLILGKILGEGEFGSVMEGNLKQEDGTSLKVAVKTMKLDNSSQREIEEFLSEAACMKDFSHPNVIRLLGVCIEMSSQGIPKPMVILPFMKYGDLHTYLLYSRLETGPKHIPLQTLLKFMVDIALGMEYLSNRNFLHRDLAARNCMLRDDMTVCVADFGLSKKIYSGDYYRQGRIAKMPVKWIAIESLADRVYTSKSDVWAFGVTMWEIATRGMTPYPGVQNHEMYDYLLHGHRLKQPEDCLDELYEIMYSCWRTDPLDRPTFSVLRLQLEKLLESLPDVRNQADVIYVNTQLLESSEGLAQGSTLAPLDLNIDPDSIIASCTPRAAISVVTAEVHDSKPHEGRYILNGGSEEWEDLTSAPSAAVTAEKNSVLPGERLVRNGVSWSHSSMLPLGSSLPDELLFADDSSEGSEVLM

[2] = biological target: T2, Axl (Homo sapiens, UniProt P30530); test: Microfluidic capillary electrophoresis; format: biochemical
T2 sequence (P30530 26-894): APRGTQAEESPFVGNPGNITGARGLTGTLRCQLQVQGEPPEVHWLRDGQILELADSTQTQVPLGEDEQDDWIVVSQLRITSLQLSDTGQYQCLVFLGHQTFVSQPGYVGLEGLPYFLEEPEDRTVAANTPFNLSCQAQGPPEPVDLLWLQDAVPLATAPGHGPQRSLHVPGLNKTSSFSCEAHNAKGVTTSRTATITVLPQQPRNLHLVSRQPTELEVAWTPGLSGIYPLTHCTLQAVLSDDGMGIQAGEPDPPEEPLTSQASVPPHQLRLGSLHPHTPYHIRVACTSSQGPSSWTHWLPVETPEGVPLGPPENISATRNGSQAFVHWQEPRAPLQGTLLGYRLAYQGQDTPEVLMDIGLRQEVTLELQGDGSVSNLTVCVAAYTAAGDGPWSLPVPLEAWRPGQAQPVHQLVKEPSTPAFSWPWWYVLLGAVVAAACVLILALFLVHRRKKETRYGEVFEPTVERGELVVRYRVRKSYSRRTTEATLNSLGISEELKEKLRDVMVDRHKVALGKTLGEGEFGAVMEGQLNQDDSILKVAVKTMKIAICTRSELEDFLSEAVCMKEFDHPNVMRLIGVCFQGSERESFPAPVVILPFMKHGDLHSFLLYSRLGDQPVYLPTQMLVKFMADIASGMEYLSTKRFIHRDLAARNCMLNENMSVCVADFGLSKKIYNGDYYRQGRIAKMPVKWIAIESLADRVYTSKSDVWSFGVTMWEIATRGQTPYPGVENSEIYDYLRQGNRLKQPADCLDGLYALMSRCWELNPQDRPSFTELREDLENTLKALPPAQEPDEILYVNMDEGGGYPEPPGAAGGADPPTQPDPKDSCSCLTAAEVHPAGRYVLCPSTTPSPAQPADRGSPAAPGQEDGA

[3] = biological target: T3, Tyro3 (Homo sapiens, UniProt Q06418); test: Microfluidic capillary electrophoresis; format: biochemical
T3 sequence (Q06418 41-890): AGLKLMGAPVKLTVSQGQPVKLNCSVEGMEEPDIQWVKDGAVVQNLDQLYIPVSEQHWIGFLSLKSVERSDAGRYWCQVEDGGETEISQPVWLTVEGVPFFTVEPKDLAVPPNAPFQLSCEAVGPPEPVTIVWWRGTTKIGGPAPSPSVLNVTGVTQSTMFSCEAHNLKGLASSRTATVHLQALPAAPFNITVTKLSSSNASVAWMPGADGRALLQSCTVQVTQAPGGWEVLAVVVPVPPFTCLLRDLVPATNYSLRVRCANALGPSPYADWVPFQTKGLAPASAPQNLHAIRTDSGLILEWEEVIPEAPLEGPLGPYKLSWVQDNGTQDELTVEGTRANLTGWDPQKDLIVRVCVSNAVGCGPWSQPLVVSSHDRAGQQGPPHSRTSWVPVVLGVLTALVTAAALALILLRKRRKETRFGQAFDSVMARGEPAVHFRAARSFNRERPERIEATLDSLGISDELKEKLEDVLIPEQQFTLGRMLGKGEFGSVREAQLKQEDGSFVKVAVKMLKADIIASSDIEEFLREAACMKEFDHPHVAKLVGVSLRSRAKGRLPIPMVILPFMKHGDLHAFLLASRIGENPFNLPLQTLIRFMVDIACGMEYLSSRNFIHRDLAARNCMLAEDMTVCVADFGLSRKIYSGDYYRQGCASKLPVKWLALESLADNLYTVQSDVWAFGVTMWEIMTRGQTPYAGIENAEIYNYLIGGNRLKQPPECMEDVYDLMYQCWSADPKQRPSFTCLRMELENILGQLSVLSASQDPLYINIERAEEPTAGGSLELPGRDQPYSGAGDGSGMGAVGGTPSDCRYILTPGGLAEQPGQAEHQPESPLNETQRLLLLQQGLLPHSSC

[4] = biological target: hERG channel (Homo sapiens, UniProt Q12809); test: hERG PatchXpress assay / hERG binding assay; conditions: read-out: hERG EC50
[5] = tested on: A549 cells; test: Soft agar colony formation assay, A549; conditions: 2 weeks
[6] = tested on: Colo699 cells; test: Soft agar colony formation assay, Colo699; conditions: 2 weeks

hERG channel, sequence (Q12809 whole entry): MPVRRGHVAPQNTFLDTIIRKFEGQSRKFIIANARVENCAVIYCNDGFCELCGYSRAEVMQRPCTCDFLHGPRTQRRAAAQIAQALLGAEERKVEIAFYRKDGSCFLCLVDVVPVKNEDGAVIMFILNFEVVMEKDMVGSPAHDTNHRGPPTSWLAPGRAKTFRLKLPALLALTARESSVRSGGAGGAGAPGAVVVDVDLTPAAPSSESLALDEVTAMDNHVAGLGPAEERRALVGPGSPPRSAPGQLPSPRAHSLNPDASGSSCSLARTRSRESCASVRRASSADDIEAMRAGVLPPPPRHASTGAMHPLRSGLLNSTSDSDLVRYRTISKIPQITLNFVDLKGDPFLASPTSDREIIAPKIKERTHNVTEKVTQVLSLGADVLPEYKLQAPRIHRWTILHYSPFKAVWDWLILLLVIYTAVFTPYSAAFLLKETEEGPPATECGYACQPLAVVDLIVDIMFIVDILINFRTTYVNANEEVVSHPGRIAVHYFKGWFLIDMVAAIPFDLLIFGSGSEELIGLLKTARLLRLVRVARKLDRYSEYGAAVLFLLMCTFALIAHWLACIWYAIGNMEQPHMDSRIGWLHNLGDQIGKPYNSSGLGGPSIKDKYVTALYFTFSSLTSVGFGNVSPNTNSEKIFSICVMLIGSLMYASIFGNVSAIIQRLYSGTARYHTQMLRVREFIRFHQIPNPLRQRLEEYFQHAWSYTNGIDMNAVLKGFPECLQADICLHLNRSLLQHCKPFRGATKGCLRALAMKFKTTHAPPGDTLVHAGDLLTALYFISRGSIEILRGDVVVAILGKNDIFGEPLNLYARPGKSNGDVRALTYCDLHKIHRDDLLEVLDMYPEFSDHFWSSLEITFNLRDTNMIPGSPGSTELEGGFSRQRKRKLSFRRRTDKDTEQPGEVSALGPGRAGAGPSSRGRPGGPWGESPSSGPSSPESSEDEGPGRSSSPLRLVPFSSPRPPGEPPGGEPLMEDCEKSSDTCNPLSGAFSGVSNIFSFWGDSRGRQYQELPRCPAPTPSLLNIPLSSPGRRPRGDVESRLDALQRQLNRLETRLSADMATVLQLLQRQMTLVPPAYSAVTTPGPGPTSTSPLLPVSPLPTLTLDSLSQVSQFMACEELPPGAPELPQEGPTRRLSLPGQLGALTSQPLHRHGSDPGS

Row | SMILES | IC50 [2] [nM] | IC50 [3] [nM] | other results
1 | CCCCNc1ncc2c(-c3ccc(S(=O)(=O)N4CCC(C(=O)N5CCOCC5)CC4)cc3)nn([C@H]3CC[C@H](O)CC3)c2n1 [Compound 36, trans-(1-((4-(6-(Butylamino)-1-(4-hydroxycyclohexyl)-1H-pyrazolo[3,4-d]pyrimidin-3-yl)phenyl)sulfonyl)piperidin-4-yl)(morpholino)methanone] | 23 | 76 | IC50 [1]: 1.4 nM
2 | CCCCNc1ncc2c(-c3ccc(S(=O)(=O)N4CCCC4)cc3)nn([C@H]3CC[C@H](O)CC3)c2n1 [Compound 34, trans-4-(6-(Butylamino)-3-(4-(pyrrolidin-1-ylsulfonyl)phenyl)-1H-pyrazolo[3,4-d]pyrimidin-1-yl)cyclohexanol] |  |  | IC50 ([1]; read-out: IC50 Mer, ATP at Km, mean of two or more independent assays): 0.65 nM; IC50 ([2]; read-out: IC50 Axl, ATP at Km, mean of two or more independent assays): 46 nM; IC50 ([3]; read-out: IC50 Tyro3, ATP at Km, mean of two or more independent assays): 22 nM
3 | CCCCNc1ncc2c(-c3ccc(S(=O)(=O)NC)cc3)nn(C[C@H]3CC[C@H](N)CC3)c2n1 [Compound 2, 4-(1-((trans-4-Aminocyclohexyl)methyl)-6-(butylamino)-1H-pyrazolo[3,4-d]pyrimidin-3-yl)-N-methylbenzenesulfonamide] | 59 | 27 | 
4 | CCCCNc1ncc2c(-c3ccc(S(=O)(=O)NC)cc3)nn(C[C@H]3CC[C@H](O)CC3)c2n1 [Compound 7, 4-(1-((trans-4-Hydroxycyclohexyl)methyl)-6-(butylamino)-1H-pyrazolo[3,4-d]pyrimidin-3-yl)-N-methylbenzenesulfonamide] | 140 | 130 | 
5 | CCCCNc1ncc2c(-c3ccc(S(=O)(=O)NC4CCCC4)cc3)nn([C@H]3CC[C@H](O)CC3)c2n1 [Compound 24, trans-4-(6-(Butylamino)-1-(4-hydroxycyclohexyl)-1H-pyrazolo[3,4-d]pyrimidin-3-yl)-N-cyclopentylbenzenesulfonamide] | 67 | 31 | 
6 | CCCCNc1ncc2c(-c3ccc(F)cc3)nn(CC3CCC(N)CC3)c2n1 (stereo not drawn) [UNC569] |  |  | EC50 [4]: 1700 nM
7 | CCCCNc1ncc2c(-c3ccc(S(=O)(=O)NC4CCOCC4)cc3)nn([C@H]3CC[C@H](O)CC3)c2n1 [Compound 26, trans-4-(6-(Butylamino)-1-(4-hydroxycyclohexyl)-1H-pyrazolo[3,4-d]pyrimidin-3-yl)-N-(tetrahydro-2H-pyran-4-yl)benzenesulfonamide] | 69 | 28 | 
8 | CCCCNc1ncc2c(-c3ccc(S(=O)(=O)N4CCOCC4)cc3)nn([C@H]3CC[C@H](O)CC3)c2n1 [Compound 35, trans-4-(6-(Butylamino)-3-(4-(morpholinosulfonyl)phenyl)-1H-pyrazolo[3,4-d]pyrimidin-1-yl)cyclohexanol] |  |  | colony formation in soft agar [5]: inhibited colony formation; colony formation in soft agar [6]: inhibited colony formation
9 | CCCCNc1ncc2c(-c3ccc(S(=O)(=O)NCCC)cc3)nn([C@H]3CC[C@H](O)CC3)c2n1 [Compound 21, trans-4-(6-(Butylamino)-1-(4-hydroxycyclohexyl)-1H-pyrazolo[3,4-d]pyrimidin-3-yl)-N-propylbenzenesulfonamide] | 62 | 35 | 
10 | CCCCNc1ncc2c(-c3ccc(S(N)(=O)=O)cc3)nn([C@H]3CC[C@H](O)CC3)c2n1 [Compound 20, trans-4-(6-(Butylamino)-1-(4-hydroxycyclohexyl)-1H-pyrazolo[3,4-d]pyrimidin-3-yl)benzenesulfonamide] | 29 | 54 | IC50 [1]: 1.4 nM
11 | CCCCNc1ncc2c(-c3ccc(S(=O)(=O)NC(C)C)cc3)nn([C@H]3CC[C@H](O)CC3)c2n1 [Compound 22, trans-4-(6-(Butylamino)-1-(4-hydroxycyclohexyl)-1H-pyrazolo[3,4-d]pyrimidin-3-yl)-N-isopropylbenzenesulfonamide] | 120 | 68 | 
12 | CCCCNc1ncc2c(-c3ccc(NS(C)(=O)=O)cc3)nn([C@H]3CC[C@H](O)CC3)c2n1 [Compound 18, trans-N-(4-(6-(Butylamino)-1-(4-hydroxycyclohexyl)-1H-pyrazolo[3,4-d]pyrimidin-3-yl)phenyl)methanesulfonamide] | 110 | 35 | 
13 | CCCCNc1ncc2c(-c3ccc(S(=O)(=O)NC4CCCCC4)cc3)nn([C@H]3CC[C@H](O)CC3)c2n1 [Compound 25, trans-4-(6-(Butylamino)-1-(4-hydroxycyclohexyl)-1H-pyrazolo[3,4-d]pyrimidin-3-yl)-N-cyclohexylbenzenesulfonamide] | 350 | 45 | 
14 | CCCCNc1ncc2c(-c3ccc(S(=O)(=O)Nc4ccc(F)cc4)cc3)nn([C@H]3CC[C@H](O)CC3)c2n1 [Compound 27, trans-4-(6-(Butylamino)-1-(4-hydroxycyclohexyl)-1H-pyrazolo[3,4-d]pyrimidin-3-yl)-N-(4-fluorophenyl)benzenesulfonamide] | 6500 | 290 | 
